Assay results: patent US7425567B2, “Piperidine derivative compounds and drugs containing the compounds as the active ingredient” (Ono Pharmaceutical Co., Ltd., priority 2002, dated 2008)

What was measured:
[1] = target: PDE4; assay: In vitro enzyme assay, PDE4 inhibitory activity; format: biochemical; settings: PDE4 enzyme solution from U937 cells (derived from human monocyte), 3H-cAMP substrate, room temperature, 30 minutes; read-out: IC50 (concentration of 50% inhibition of PDE4 activity)
Description: U937 cells (derived from human monocyte) were cultured in PRMI 1640 medium containing 10% bovine fetal serum. The U937 cells were harvested and homogenized in 50 mM Tris-HCl buffer [pH 7.5, containing PMSF (1 mM), leupeptin (1 μg/ml) and pepstatin A (1 μg/ml)]. After centrifugation (at 15,000 rpm for 10 minutes), the supernatant was recovered and filtered through a 0.45 μm filter. The sample was applied to MonoQ (manufactured by Pharmacia, strong anion exchange resin) column and eluted by a density gradient of 0 to 0.8 M NaCl. Fractions from which the PDE activity was disappeared by 10 μM rolipram (a PDE4-selective inhibitor) were recovered and used as the enzyme solution for the measurement of PDE4 inhibitory activity.
The enzyme activity was measured by the following method. […] To an alumina column (100 μl), was applied 50 μl of the supernatant, eluted with 80 μl of 0.005 N hydrochloric acid, and radioactivity of the eluate was measured.
PDE4 inhibitory activity ratio of the compound of the present invention of formula (I) was calculated by the following equation: PDE4 activity inhibitory ratio (%)=(1−radioactivity in the presence of the compound of the present invention of formula (1)/radioactivity in the absence of the compound of the present invention of formula (I))×100 […]

[2] = test system: TNF-α production; assay: TNF-α production inhibitory effect in LPS-stimulated heparinized blood; format: cell-based; settings: blood of a healthy person, 6 hours incubation, human TNF-α ELISA
Description: A heparinized blood sample collected from a healthy person was dispensed in 180 μl/well into a 96-well plate. A solution of compound 1 (final concentration of DMSO: 0.1% or less) was dispensed at 10 μl and the plate was allowed to stand at 37° C. for 30 minutes in a 5% CO2 incubator. The reaction was initiated by adding 10 μl of LPS solution. After 6 hours of incubation in a CO2 incubator (5% CO2, humidified), the plate was shaken and then centrifuged at 300×g for 5 minutes to recover 50 μl of the supernatant (blood plasma). The amount of TNF-α in the supernatant was measured using a human TNF-α ELISA kit (DIACLONE Cat. No. 850.090.096) in accordance with the method attached thereto.

N#CC1(c2ccc(OC(F)F)c(OC3CCCC3)c2)CCN(CC(=O)O)CC1 [compound 1, 2-(4-(3-cyclopentyloxy-4-difluoromethoxyphenyl)-4-cyanopiperidin-1-yl)acetic acid monohydrate]
IC50 [1]: 0.042 µM | inhibitory activity against TNF-α production [2]: dose-dependent inhibitory activity
